In paper PMC6208908, “Field template-based design and biological evaluation of new sphingosine kinase 1 inhibitors” (Breast Cancer Research and Treatment, 2018):
Marks after values point to notes of the source that are not given here.

Experiments:
[1] = test system: 4T1 breast cancer allografts; assay: 4T1 breast cancer allograft, tumour volume; format: in vivo, BALB/c nude mice; conditions: 5 mg/kg each drug i.p. twice a week for 2 weeks; control 468 mm^3
Description: Breast cancer allografts were established in 6–8-week-old BALB/c nude mice by injection of 10^6 4T1 cells into their mammary pad. Two weeks after implantation, mice were randomised into treatment groups (n = 6/group) and treated twice a week for 2 weeks with intraperitoneal injections of dimethyl sulfoxide (DMSO), 5 mg/kg DTX, 5 mg/kg SK-F, 5 mg/kg DTX + 5 mg/kg SK-F. One day after the last treatment, all mice were euthanized and blood was collected. Tumour long and short radii were measured using calipers and tumour volume (v) was calculated using the formula v = 4/3 πab^2 (a – long radius, b – short radius). Mice and individual organs were weighed and primary tumours were then processed for analysis of SK1 activity as described above. Full blood count and liver function test analysis was done in the Hammersmith hospital biochemical lab. […]
(§1) Fig. 5 Effect of compound SK-F on breast tumour growth and SK1 activity. […] Two weeks after implantation, mice were randomised into treatment groups (n = 6/group) and treated twice a week for 2 weeks with intraperitoneal injections of: DMSO, 5 mg/kg DTX, 5 mg/kg SK-F, 5 mg/kg DTX + 5 mg/kg SK-F. a Tumour volume in the different treatment groups of 4T1 breast cancer implanted in mouse mammary fat pad. b SK1 activity in tumours was measured using radiolabelling. […]

[2] = Whole-body toxicity: body and organ weights, full blood count; format: in vivo, BALB/c nude mice; conditions: 5 mg/kg each drug i.p. twice a week for 2 weeks, 4T1 tumour-bearing mice
Description: (§2) Breast cancer allografts were established in 6–8-week-old BALB/c nude mice by injection of 10^6 4T1 cells into their mammary pad. Two weeks after implantation, mice were randomised into treatment groups (n = 6/group) and treated twice a week for 2 weeks with intraperitoneal injections of dimethyl sulfoxide (DMSO), 5 mg/kg DTX, 5 mg/kg SK-F, 5 mg/kg DTX + 5 mg/kg SK-F. One day after the last treatment, all mice were euthanized and blood was collected. Tumour long and short radii were measured using calipers and tumour volume (v) was calculated using the formula v = 4/3 πab^2 (a – long radius, b – short radius). Mice and individual organs were weighed and primary tumours were then processed for analysis of SK1 activity as described above. Full blood count and liver function test analysis was done in the Hammersmith hospital biochemical lab.
Tumour-bearing mice were divided into four groups (n = 6) and injected with: DMSO, 5 mg/kg DTX, 5 mg/kg SK-F, 5 mg/kg DTX + 5 mg/kg SK-F. Two weeks after the tumour cells inoculation, we began intraperitoneal injections of drug preparations and continued these twice a week for two weeks. Based on our previous studies, we have chosen relatively smaller doses of SK-F and DTX in order to investigate their combined effect and potential chemosensitisation of breast tumours to taxane therapies. In the control group, tumours grew progressively and rapidly (Fig. 5a). […] Five mg/kg DTX has induced a significant reduction in tumour volume to 281 mm^3. The biggest reduction in tumour volume to 159 mm^3 was observed when DTX was combined with SK-F (Fig. 5a). […] We have further investigated the effects of the used treatments on mouse whole-body toxicity. DTX has reduced body and liver weight, while SK-F had no significant effect (Table 1). DTX has induced significant anaemia and leukopenia, while the effects of SK-F were very moderate. In all cases, the effects of combined therapy were similar to DTX alone (Table 1). Liver function test was performed as a surrogate marker for chemotherapy-induced liver damage (Fig. 6). […] The combination therapy had similar toxicity profile to DTX alone, while exerting higher antitumour efficacy (Fig. 5a).

tumour SK1 = molecular target: T1, tumour SK1 (Mus musculus, UniProt Q8CI15); assay: SK1 activity in 4T1 allograft tumours; format: in vivo, BALB/c nude mice; conditions: 5 mg/kg each drug i.p. twice a week for 2 weeks
T1 construct: primary tumours were then processed for analysis of SK1 activity as described above; from tissue; host or cells: 4T1 breast tumour allografts from BALB/c nude mice
T1 sequence (Q8CI15 whole entry): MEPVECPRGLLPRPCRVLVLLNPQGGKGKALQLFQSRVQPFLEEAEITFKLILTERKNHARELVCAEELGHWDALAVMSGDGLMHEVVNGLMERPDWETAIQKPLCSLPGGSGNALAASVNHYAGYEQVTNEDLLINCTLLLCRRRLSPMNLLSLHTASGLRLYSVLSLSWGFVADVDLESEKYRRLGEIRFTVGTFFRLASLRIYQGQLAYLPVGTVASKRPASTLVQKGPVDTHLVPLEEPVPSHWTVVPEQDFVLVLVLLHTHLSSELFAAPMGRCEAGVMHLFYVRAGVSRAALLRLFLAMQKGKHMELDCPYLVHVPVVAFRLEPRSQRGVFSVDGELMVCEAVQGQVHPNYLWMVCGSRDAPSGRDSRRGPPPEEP
Description: as §2, §1

[3] = Liver function tests in treated mice; format: in vivo, BALB/c nude mice; conditions: 5 mg/kg i.p. twice a week for 2 weeks
Description: as §2
Fig. 6 Liver function tests of mice treated with SK-F and docetaxel (DTX). Breast cancer allografts were established in BALB/c nude mice by injection of 4T1 cells into their mammary pad. Two weeks after implantation, mice were randomised into treatment groups (n = 6/group) and treated twice a week for two weeks with intraperitoneal injections of: DMSO, 5 mg/kg DTX, 5 mg/kg SK-F, 5 mg/kg DTX + 5 mg/kg SK-F. a Alanine transaminases (ALT). b Bilirubin. c Aspartate transaminase (AST). d Albumin. e Alkaline phosphatase (ALP). f Total protein. Columns, mean of n = 6 animals normalised to control; bars, SEM. (*p < 0.05; **p < 0.01)

recombinant SK1 = recombinant SK1 (Homo sapiens, UniProt Q9NYA1); assay: SK1 activity assay, cell-free (recombinant SK1 extract, radiolabelling); format: biochemical; conditions: 1 µM compound, recombinant SK1 extract in excess, 1 µM ATP, 1 µM sphingosine, 1 h
recombinant SK1, sequence (Q9NYA1 whole entry): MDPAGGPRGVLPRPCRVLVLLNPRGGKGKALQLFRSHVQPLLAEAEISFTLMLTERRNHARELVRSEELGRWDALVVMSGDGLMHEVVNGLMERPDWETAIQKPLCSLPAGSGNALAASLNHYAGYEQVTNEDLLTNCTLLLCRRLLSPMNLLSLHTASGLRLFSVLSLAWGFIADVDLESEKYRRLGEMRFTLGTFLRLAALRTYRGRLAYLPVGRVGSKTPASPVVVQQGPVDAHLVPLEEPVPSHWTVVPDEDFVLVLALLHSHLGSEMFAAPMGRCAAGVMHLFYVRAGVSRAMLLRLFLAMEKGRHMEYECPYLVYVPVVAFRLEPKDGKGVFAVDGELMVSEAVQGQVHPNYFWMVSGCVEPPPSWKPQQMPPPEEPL
Description: (§3) SK assay was performed using radiolabeling as previously described, in conditions favouring SK1 or SK2 activity as required.
The synthesised compounds were then screened for SK1 inhibition. Compounds SK-A to SK-F and SKI-II (commercial inhibitor of SK used as positive control with reported IC50 0.5 µM [14]) at 1 µM were incubated in the presence of recombinant SK1 extract (in excess), 1 µM of ATP, and exogenous 1 µM sphingosine for 1 h followed by measurement of SK1 activity.
(§4) Fig. 2 Inhibition of sphingosine kinase 1 in cell-free extract and in vitro. a 1 µM of compounds SK-A to SK-F and SKI-II (commercial inhibitor of SK used as a positive control) were incubated in the presence of recombinant SK1 extract (in excess), 1 µM of ATP, and 1 µM exogenous sphingosine for 1 h. b MDA-MB-231 cells were incubated with 1 µM of compounds SK-A to SK-F and SKI-II for 6 h. SK1 activity was measured as described in materials and methods. Columns, means of three independent experiments normalised to vehicle; bars, SEM. (ns, non-significant; *p < 0.05; **p < 0.01)
SK1 activity was determined in the presence of triton X-100 and SK2 activity was measured in the presence of high salt concentrations, conditions that favour SK1 and SK2, respectively. […] Km for SK1 was 6.97 ± 1.20 µM, Vmax 98 ± 4 µM/min/mg protein and Ki for SK-F 0.46 ± 0.1 µM. […] Some SK inhibitors such as SKI-II were previously shown to induce proteasomal degradation of SK1 [48, 49].

[4] = molecular target: T2, endogenous SK1 in MDA-MB-231 cells (Homo sapiens, UniProt Q9NYA1); assay: SK1 activity in lysates of treated MDA-MB-231 cells; format: cell-based; conditions: 1 µM, 6 h
T2 construct: We treated MDA-MB-231 cells with 1 µM of compounds SK-A – SK-F and SKI-II as the positive control for 6 h; endogenous in cells; host or cells: MDA-MB-231
T2 sequence (Q9NYA1 whole entry): as above
Description: After incubation, cells were washed with ice-cold phosphate-buffered saline (PBS) and harvested.
as §3, §4
Reportedly, among human tumour cell lines, the breast cancer cell line MDA-MB-231 expresses high levels of SK activity. We treated MDA-MB-231 cells with 1 µM of compounds SK-A – SK-F and SKI-II as the positive control for 6 h and analysed SK1 activity in the cell lysates using SK1 activity assay.

SK1 mRNA = SK1 mRNA expression by qRT-PCR in MDA-MB-231 cells; format: cell-based, human; conditions: 1, 2, 5 and 10 µM, 24 h
Description: Isolation of total RNA from MDA-MB-231 cells was performed using the RNeasy Mini kit (Qiagen, Valencia, CA, USA) as per manufacturer’s instructions. RNA quantity and purity were measured using a NanoDrop ND-1000 Spectrophotometer (Thermo Fisher Scientific, Loughborough, UK). Reverse transcription was performed using precision nanoScript™ reverse transcription kit (PrimerDesign Ltd, Southampton, UK). qRT-PCR was done as already described. Ct values were exported and analysed using qbase software (Biogazelle NV, Zwijnaarde, Belgium).
Fig. 3 Effect of compounds SK-A to SK-F on SK1 mRNA levels. MDA-MB-231 cells were incubated with 1, 2, 5 and 10 µM of compounds SK-A to SK-F for 24 h. SK1 mRNA expression was measured by qRT-PCR. Columns, means of three independent experiments normalised to control; bars, SEM. (*p < 0.05; **p < 0.01)

SK = test system: SK; design: method as in PMID 14522923; conditions: commercial inhibitor of SK, positive control; read-out: reported IC50; cited from earlier work
SK1 protein = SK1 protein level (Figure S9); format: cell-based
MDA-MB-231 cells = assay: MTT cell viability / proliferation assay; format: cell-based, human; conditions: 1, 2, 5 and 10 µM, up to 120 h
Description: Cellular viability was measured using the 3-(4,5-dimethylthiazol-2-yl)-2,5-diphenyltetrazolium bromide (MTT; 5 mg/ml) colorimetric assay as already described.
Fig. 4 Effect of compounds SK-A to SK-F on breast cancer cell viability. MDA-MB-231 cells were incubated with 1, 2, 5 and 10 µM of compounds SK-A to SK-F for up to 120 h. Cell proliferation was measured using MTT assay. Columns, means of three independent experiments normalised to control; bars, SEM. (*p < 0.05; **p < 0.01; ^§p < 0.001). IC50 levels for SK-F for 72, 96 and 120 h were 7, 4.5 and 3 µM, respectively

## CC(=O)O[C@@]12CO[C@@H]1C[C@H](O)[C@@]1(C)C(=O)[C@H](O)C3=C(C)[C@@H](OC(=O)[C@H](O)[C@@H](NC(=O)OC(C)(C)C)c4ccccc4)C[C@@](O)([C@@H](OC(=O)c4ccccc4)[C@H]21)C3(C)C [DTX, docetaxel, reference compound]
[1]
  tumour volume at the end of the study: 281 mm^3
[2]
  Hb: 65 ± 7 % of control ± SEM
  WCC: 54 ± 4 % of control ± SEM
  Weight of Body: 86 ± 7 % of control ± SEM
  Weight of Kidney: 97 ± 5.9^a % of control ± SEM
  Weight of Liver: 85.3 ± 11.4^a % of control ± SEM
  Weight of Lungs: 99.4 ± 4.a % of control ± SEM
  Weight of Spleen: 91.3 ± 15.4^a % of control ± SEM
Tumour SK1
  tumour SK1 activity: no effect
[3]
  alanine transaminases (ALT): significant increases
  alkaline phosphatase (ALP): milder increase
  aspartate transaminase (AST): significant increases

## CCCCCCCCc1ccc(NC(=O)c2cccc(Cl)c2)cc1 [SK-E]
Recombinant SK1
  inhibition of SK1 activity in cell-free settings: statistically significant inhibition
[4]
  SK1 activity in cells versus vehicle: significantly decreased

## Oc1ccc(Nc2nc(-c3ccc(Cl)cc3)cs2)cc1 [SKI-II, reference compound]
SK1 mRNA
  effect on SK1 mRNA expression: minimal effect
SK
  IC50: 500 nM
SK1 protein
  effect on SK1 protein: significant decrease

## CCCCCCCCc1ccc(NC(=O)C2CCNCC2)cc1 [SK-C]
SK1 mRNA
  effect on SK1 mRNA expression: reduction in SK1 mRNA
MDA-MB-231 cells
  effect on MDA-MB-231 cancer cell proliferation: highest effect
Recombinant SK1
  inhibition of SK1 activity in cell-free settings: ineffective
[4]
  SK1 activity in cells versus vehicle: significantly decreased
SK1 protein
  decrease in SK1 protein: 75%
